{
  "source": "patent US20050089535A1",
  "about": "“Delivery of biologically active agents” (priority 2002, published 2005)",
  "assay": "Use of the Weston needleless injector to evaluate penetration of the cervix (dye track)",
  "parameters": "species or system human",
  "details": "0.2 ml of 1 mg/ml methylene blue in phosphate buffered saline, Weston needleless injector held against ectocervix, ex vivo cervix from non-pregnant women",
  "description": "A Weston needleless injector was loaded with 0.2 ml of dye (1 mg/ml of methylene blue {Sigma} in phosphate buffered saline). Whole human cervix was obtained at hysterectomy from non-pregnant women of reproductive age. The cervix was tested within 30 minutes of removal from the patient. The needleless injector device was held against the ectocervix region. Increased pressure on the needleless injector activated the device. Two injections were performed for each specimen.\nThe cervix was dissected along the track of the injection (FIG. 2) and the length of the dye track was measured. In four experiments the length of the track was a mean of 6.1 mm (standard error of the mean=1.9 mm). The mean lateral spread (any signs of the blue dye) was 8.8 mm.",
  "data": [
    {"smiles": "CN(C)c1ccc2nc3ccc(=[N+](C)C)cc-3sc2c1", "note": "[dye, methylene blue]", "values": [
      {"measurement": "mean lateral spread (any signs of the blue dye)", "value": 8.8, "unit": "mm"},
      {"measurement": "length of the dye track (mean)", "setting": "four experiments, SEM 1.9 mm", "value": 6.1, "unit": "mm"}
    ]}
  ]
}
